Laboratory results reported in US12239711B2, “Cereblon ligands and bifunctional compounds comprising the same” (Arvinas Operations, Inc., priority 2014, dated 2025).
Where two headings read alike, the source gives them in different places.

Key:
[1] = target: T1, Estrogen Receptor-Alpha (ERα) (Homo sapiens, UniProt P03372); test: Estrogen Receptor-Alpha (ERα) degradation assay in MCF-7 cells (western blot / In-Cell Western); format: cell-based; conditions: for Dmax: MCF7, read-out: ER Dmax; for DC50: read-out: ER DC50
T1 construct: endogenous in cells; host or cells: MCF-7 (MCF7) cells
T1 sequence (P03372 1-595): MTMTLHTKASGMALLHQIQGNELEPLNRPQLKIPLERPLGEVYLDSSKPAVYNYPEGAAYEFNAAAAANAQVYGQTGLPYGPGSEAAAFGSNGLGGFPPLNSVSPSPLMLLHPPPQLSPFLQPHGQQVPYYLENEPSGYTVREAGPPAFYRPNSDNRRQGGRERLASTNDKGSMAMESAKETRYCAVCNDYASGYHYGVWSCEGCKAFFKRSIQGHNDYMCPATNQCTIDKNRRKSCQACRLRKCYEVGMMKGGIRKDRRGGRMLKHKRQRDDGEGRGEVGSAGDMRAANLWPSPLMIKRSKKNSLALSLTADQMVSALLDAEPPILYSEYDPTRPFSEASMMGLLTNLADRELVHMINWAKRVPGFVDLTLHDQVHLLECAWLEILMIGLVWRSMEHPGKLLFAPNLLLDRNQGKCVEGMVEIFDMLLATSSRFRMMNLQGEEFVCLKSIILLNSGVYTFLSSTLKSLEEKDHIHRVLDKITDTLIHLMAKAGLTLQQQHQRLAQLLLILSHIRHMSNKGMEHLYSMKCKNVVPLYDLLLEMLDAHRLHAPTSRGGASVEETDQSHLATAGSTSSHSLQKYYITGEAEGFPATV
Method: 2. Estrogen Receptor-Alpha (ERα) Degradation Assay in MCF-7 Cells Using Western Blot Method for Table 5.
The exemplary novel ERα degraders were assessed for their activity in degrading ERα in MCF-7 cells via western blot. The assay was carried out in the presence of 10% FBS or high percentage of human or mouse serum. Protocols of the western blot assay are described below.
MCF7 cells were grown in DMEM/F12 with 10% FBS and seeded at 24,000 cells per well in 100 μl into 96-well clear tissue culture plates. The following day, the cells were treated with PROTACs in a […] concentration curve with 100 nM being the top concentration and serial dilutions to make the other concentrations (30 nM, 10 nM, 3 nM, 1 nM, and 0.3 nM). At all concentrations, 0.01% DMSO is the final concentration in the well. The following day, the plates are aspirated, washed with 50 μl of cold PBS. The cells are lysed with 50 μl/well 4° C. Cell Lysis Buffer (Catalog #9803; Cell Signaling Technology, Danvers, MA) (20 mM Tris-HCL (pH 7.5), 150 mM NaCl, 1 mM Na2EDTA, 1 mM EGTA, 1% Triton, 2.5 mM sodium pyrophosphate, 1 mM B-glycerophosphate, 1 mM sodium vanadate, 1 ug/ml leupeptin). Lysates were clarified at 16,000×g for 10 minutes, and 2 μg of protein was subjected to SDS-PAGE analysis and followed by immunoblotting according to standard protocols. The antibodies used were ERα (Cell Signaling Technologies Catalog #8644), and Tubulin (Sigma Catalog #T9026; St. Louis, MO). Detection reagents were Clarity Western ECL substrate (Bio-Rad Catalog #170-5060; Hercules, CA).
Alternatively, MCF7 cells were grown in DMEM/F12 with 10% FBS and seeded at 24,000 cells per well in 500 μl in 24-well clear tissue culture plates. The following day, the cells were treated with PROTACs in a 5-point concentration curve (100 nM, 33 nM, 11 nM, 3.7 nM, and 1.2 nM) in the presence of 0.01% DMSO. After 72 hours, the wells are aspirated and washed with 500 μl of PBS. The cells are lysed with 100 μl/well 4° C. Cell Lysis Buffer (Catalog #9803; Cell Signaling Technology, Danvers, MA) (20 mM Tris-HCL (pH 7.5), 150 mM NaCl, 1 mM Na2EDTA, 1 mM EGTA, 1% Triton, 2.5 mM sodium pyrophosphate, 1 mM B-glycerophosphate, 1 mM sodium vanadate, 1 ug/ml leupeptin). Lysates were clarified at 16,000×g for 10 minutes, and 2 μg of protein was subjected to SDS-PAGE analysis and followed by immunoblotting according to standard protocols. The antibodies used were ERα (Cell Signaling Technologies Catalog #8644), and Tubulin (Sigma Catalog #T9026; St. Louis, MO). Detection reagents were Clarity Western ECL substrate (Bio-Rad Catalog #170-5060; Hercules, CA).
3. Estrogen Receptor-Alpha (ERα) Degradation Assay Using In-Cell Western™ Assay for Table 5.
Degradation of ERα by claimed compounds were determined in MCF7 cells using an In-Cell Western™ assay. Briefly, MCF7 cells were plated in 96-well plates (2000 cells per well in 100 μl media) and incubated at 37° C. under an atmosphere of 5% CO2 in a humidified incubator overnight. One-hundred (100) μl of media containing test compound (at 2× concentration) was added to the appropriate wells to provide 11 serially decreasing concentrations (top final concentration, 1 μM then 3-fold less for the next 10 concentrations); a vehicle control (DMSO) was also added for each compound. For each experiment, all compounds were assayed in duplicate plates. Cells were then incubated for 3 or 5 days in the above-mentioned environment. The assay was terminated by removal of media, a single wash with ice-cold PBS and the addition of 50 μl paraformaldehyde (PFA: 4% in PBS). After 15 minutes in PFA at room temperature, the cells were permeabilized in Tris-phosphate-buffered saline with Tween (0.1%) (TBST) supplemented with Triton X-100 (0.5%) for 15 minutes. Cells were then blocked in BSA (TBST with BSA, 3%) for one hour. […]

[2] = test system: estrogen responsive element/promoter/luciferase reporter gene; test: ERE Luciferase Assay in T47D-KBluc cells; format: cell-based, human; conditions: 24 hours, luciferase activity, read-out: Target Engagement IC50
Method: 1. ERE Luciferase Assay for Compounds in Table 5.
T47D-KBluc cells (ATCC® #CRL_2865, T47D human breast cancer cells stably transfected with estrogen responsive element/promoter/luciferase reporter gene) were seeded into 96-well white opaque plates in RPMI growth medium supplemented with 10% fetal bovine serum (FBS) and allowed to adhere overnight in a 37° C. humidified incubator. The following day, cells were treated with PROTACs in a 12-point concentration curve (top final concentration of 300 nM with subsequent concentrations being 3-fold less with 2 pM being the lowest concentration in the assay). Each PROTAC was tested independently in two experiments on 96-well plates. After 24 hours, media was removed and lysis buffer was added to the wells. Following lysis, Bright-Glo™ Luciferase Assay Substrate (Promega, Madison WI) was added and the luciferase activity was measured using a Cytation 3 plate reader (BioTek™, Winooski, VT). Each compound was assayed in duplicate and the activity was calculated as IC50 using GraphPad Prism software (San Diego, CA).

Q: With `COCCOc1c(N2CCN(CC3CCN(c4ccc([C@@H]5c6ccc(O)cc6CC[C@@H]5c5ccccc5)cc4)CC3)CC2)ccc2c1CN(C1CCC(=O)NC1=O)C2=O` (stereo partly drawn) [compound 11, 3-[5-[4-[[1-[4-[(1R,2S)-6-hydroxy-2-phenyl-tetralin-1-yl]phenyl]-4-piperidyl]methyl]piperazin-1-yl]-4-(2-methoxyethoxy)-1-oxo-isoindolin-2-yl]piperidine-2,6-dione] as the compound, how does the Dmax [1] read?
A: The Dmax was 50 to 75%.

Q: What about the DC50 [1] of the same compound?
A: The DC50 was 1 to 10 nM.

Q: What about the IC50 ([2]; Homo sapiens) of the same compound?
A: The IC50 was 2 nM.

Q: `COc1cc(N2CCN(CCCC(F)(F)COc3ccc([C@@H]4c5ccc(O)cc5CC[C@@H]4c4ccccc4)cc3)CC2)cc2c1C(=O)N(C1CCC(=O)NC1=O)C2` (stereo partly drawn) [compound 12, 3-[5-[4-[4,4-difluoro-5-[4-[(1R,2S)-6-hydroxy-2-phenyl-tetralin-1-yl]phenoxy]pentyl]piperazin-1-yl]-7-methoxy-1-oxo-isoindolin-2-yl]piperidine-2,6-dione] was tested. Which Dmax [1] did it give?
A: The Dmax was ≥ 75%.

Q: And the DC50 [1]?
A: The DC50 was < 1 nM.

Q: What about the IC50 ([2]; Homo sapiens) of the same compound?
A: Its IC50 is 1 nM.

Q: How did the Dmax [1] turn out when `COc1cc(N2CCN(CCCCCOc3ccc([C@@H]4c5ccc(O)cc5CC[C@@H]4c4ccccc4)cc3)CC2)cc2c1C(=O)N([C@@H]1CCC(=O)NC1=O)C2` [compound 13, (3R)-3-[5-[4-[5-[4-[(1R,2S)-6-hydroxy-2-phenyl-tetralin-1-yl]phenoxy]pentyl]piperazin-1-yl]-7-methoxy-1-oxo-isoindolin-2-yl]piperidine-2,6-dione] was run?
A: Its Dmax is ≥ 75%.

Q: And the DC50 [1]?
A: Its DC50 is < 1 nM.

Q: And the IC50 ([2]; Homo sapiens)?
A: Its IC50 is 0.37 nM.

Q: What does the source list for `COc1cc(N2CCN(CCCCCOc3ccc([C@@H]4c5ccc(O)cc5CC[C@@H]4c4ccccc4)cc3)CC2)cc2c1C(=O)N([C@H]1CCC(=O)NC1=O)C2` [compound 14, (3S)-3-[5-[4-[5-[4-[(1R,2S)-6-hydroxy-2-phenyl-tetralin-1-yl]phenoxy]pentyl]piperazin-1-yl]-7-methoxy-1-oxo-isoindolin-2-yl]piperidine-2,6-dione]?
A: Dmax [1]: ≥ 75%; DC50 [1]: < 1 nM; IC50 ([2]; Homo sapiens): 0.49 nM

Q: `COc1cc(N2CCN(CC3CCN(c4ccc([C@@H]5c6ccc(O)cc6CC[C@@H]5c5ccccc5)cc4)CC3)CC2)cc2c1C(=O)N(C1CCC(=O)NC1=O)C2` (stereo partly drawn) [compound 15, 3-[5-[4-[[1-[4-[(1R,2S)-6-hydroxy-2-phenyl-tetralin-1-yl]phenyl]-4-piperidyl]methyl]piperazin-1-yl]-7-methoxy-1-oxo-isoindolin-2-yl]piperidine-2,6-dione] was tested. Which Dmax [1] did it give?
A: Its Dmax is ≥ 75%.

Q: What about the DC50 [1] of the same compound?
A: The DC50 was < 1 nM.

Q: What about the IC50 ([2]; Homo sapiens) of the same compound?
A: The IC50 was 1.7 nM.

Q: Which “ER Dmax” value [1] does the source give for `COc1cc(N2CCN(C3CC4CC(Oc5ccc([C@@H]6c7ccc(O)cc7CC[C@@H]6c6ccc(F)cc6)cc5)CC4C3)CC2)cc2c1C(=O)N(C1CCC(=O)NC1=O)C2` (stereo partly drawn) [compound 16, 3-[5-[4-[5-[4-[(1R,2S)-2-(4-fluorophenyl)-6-hydroxy-tetralin-1-yl]phenoxy]-1,2,3,3a,4,5,6,6a-octahydropentalen-2-yl]piperazin-l-yl]-7-methoxy-1-oxo-isoindolin-2-yl]piperidine-2,6-dione] here?
A: Its value is “B (50 <= B < 75)”.

Q: And the DC50 [1]?
A: Its DC50 is < 1 nM.

Q: What about the IC50 [2] of the same compound?
A: The IC50 was 0.82 nM.

Q: What does the source list for `COc1cc(N2CCN(Cc3cccc(COc4ccc([C@@H]5c6ccc(O)cc6CC[C@@H]5c5ccccc5)cc4)n3)CC2)cc2c1C(=O)N(C1CCC(=O)NC1=O)C2` (stereo partly drawn) [compound 17, 3-[5-[4-[[6-[[4-[(1R,2S)-6-hydroxy-2-phenyl-tetralin-1-yl]phenoxy]methyl]-2-pyridyl]methyl]piperazin-1-yl]-7-methoxy-1-oxo-isoindolin-2-yl]piperidine-2,6-dione]?
A: Dmax [1]: 50 to 75%; DC50 [1]: 1 to 10 nM; IC50 ([2]; Homo sapiens): 1.5 nM

Q: Which Dmax [1] does the source give for `COc1cc(N2CCN(CC3CCN(c4c(F)cc([C@H]5c6ccc(O)cc6CC[C@H]5c5ccccc5)cc4F)CC3)CC2)cc2c1C(=O)N(C1CCC(=O)NC1=O)C2` (stereo partly drawn) [compound 18, 3-(5-{4-[(1-{2,6-difluoro-4-[(1S,2R)-6-hydroxy-2-phenyl-1,2,3,4-tetrahydronaphthalen-1-yl]phenyl}piperidin-4-yl)methyl]piperazin-1-yl}-7-methoxy-1-oxo-2,3-dihydro-1H-isoindol-2-yl)piperidine-2,6-dione] here?
A: Its Dmax is 50 to 75%.

Q: What about the DC50 [1] of the same compound?
A: Its DC50 is 1 to 10 nM.

Q: What about the IC50 ([2]; Homo sapiens) of the same compound?
A: The IC50 was 17.5 nM.

Q: With `COc1cc(N2CCN(CC3CCN(c4c(F)cc([C@@H]5c6ccc(O)cc6CC[C@@H]5c5ccccc5)cc4F)CC3)CC2)cc2c1C(=O)N(C1CCC(=O)NC1=O)C2` (stereo partly drawn) [compound 19, 3-(5-(4-((1-(2,6-difluoro-4-((1R,2S)-6-hydroxy-2-phenyl-1,2,3,4-tetrahydronaphthalen-1-yl)phenyl)piperidin-4-yl)methyl)piperazin-1-yl)-7-methoxy-1-oxoisoindolin-2-yl)piperidine-2,6-dione] as the compound, how does the Dmax [1] read?
A: The Dmax was ≥ 75%.

Q: And the DC50 [1]?
A: The DC50 was 1 to 10 nM.

Q: What about the IC50 ([2]; Homo sapiens) of the same compound?
A: Its IC50 is 4.5 nM.

Q: Which results are given for `O=C1CCC(N2Cc3cc(N4CCN(CCCCCOc5ccc([C@@H]6c7ccc(O)cc7CC[C@@H]6c6ccccc6)cc5)CC4)cc(OC(F)F)c3C2=O)C(=O)N1` (stereo partly drawn) [compound 20, 3-[7-(difluoromethoxy)-5-[4-[5-[4-[(1R,2S)-6-hydroxy-2-phenyl-tetralin-1-yl]phenoxy]pentyl]piperazin-1-yl]-1-oxo-isoindolin-2-yl]piperidine-2,6-dione]?
A: Dmax [1]: 50 to 75%; DC50 [1]: 1 to 10 nM; IC50 ([2]; Homo sapiens): 1.2 nM

Q: How did the Dmax [1] turn out when `O=C1CCC(N2Cc3cc(N4CCN(CCCC(F)(F)COc5ccc([C@@H]6c7ccc(O)cc7CC[C@@H]6c6ccccc6)cc5)CC4)cc(OC(F)F)c3C2=O)C(=O)N1` (stereo partly drawn) [compound 21, 3-[5-[4-[4,4-difluoro-5-[4-[(1R,2S)-6-hydroxy-2-phenyl-tetralin-1-yl]phenoxy]pentyl]piperazin-1-yl]-7-(difluoromethoxy)-1-oxo-isoindolin-2-yl]piperidine-2,6-dione] was run?
A: The Dmax was 50 to 75%.

Q: What about the DC50 [1] of the same compound?
A: The DC50 was 1 to 10 nM.

Q: What about the IC50 ([2]; Homo sapiens) of the same compound?
A: The IC50 was 2.5 nM.
